Drawing on patent US9718817B2, “Aryl and heteroaryl ether compounds as ROR gamma modulators” (Glenmark Pharmaceuticals S.A., priority 2014, dated 2017), this text covers IC50 and inhibition for 21 molecules.

The experiment has as its target T1, GST-tagged ROR gamma ligand binding domain (LBD) (Homo sapiens, UniProt P51449).
T1 construct: purchased Invitrogen
T1 sequence (P51449 269-508 limits assumed): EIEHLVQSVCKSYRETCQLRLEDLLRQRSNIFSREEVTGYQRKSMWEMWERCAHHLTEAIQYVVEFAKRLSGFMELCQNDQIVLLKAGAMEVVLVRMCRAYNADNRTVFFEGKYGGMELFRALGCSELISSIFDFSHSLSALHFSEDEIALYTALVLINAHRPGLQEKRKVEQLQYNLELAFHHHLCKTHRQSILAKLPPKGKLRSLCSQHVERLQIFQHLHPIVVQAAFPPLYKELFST
Briefly: TR-FRET assay for ROR gamma (LanthaScreen co-activator peptide recruitment). To be noted: for IC50: class symbols, from dose response curve; for inhibition at 1 µM: compound 1 μM; for inhibition at 1 µM / inhibition at 10 µM: TR-FRET ratio 520/495, percent of control; for inhibition at 10 µM: compound 10 μM. The class given is biochemical. From the text: The compounds described herein were screened for ROR gamma modulator activity using the TR-FRET assay by Lantha Screen as described in JBC 2011, 286, 26: 22707-10; and Drug Metabolism and Disposition 2009, 37, 10: 2069-78.
The assay is based on the principle that binding of the agonist to the ROR gamma causes a conformational change around helix 12 in the ligand binding domain, resulting in higher affinity for the co-activator peptide. ROR gamma being constitutively active, the Fluorescein-D22 co-activator peptide used in the assay is recruited in the absence of a ligand. Binding of the co-activator peptide, causes an increase in the TR-FRET signal while binding of an antagonist decreases the recruitment of the co-activator peptide, causing a decrease in the TR-FRET signal compared to control with no compound. The assay was performed using a two-step procedure, pre-incubation step with the compound followed by the detection step on addition of the anti-GST tagged terbium (Tb) and fluorescein tagged fluorophores as the acceptor.
Test compounds or reference compounds such as T0901317 (Calbiochem) were dissolved in dimethylsulfoxide (DMSO) to prepare 10.0 mM stock solutions and diluted to the desired concentration. The final concentration of DMSO in the reaction was 4% (v/v). The assay mixture was prepared by mixing 10 nM of the GST-tagged ROR gamma ligand binding domain (LBD) in the assay buffer containing 25 mM HEPES (pH 7.4), 100 mM NaCl, 5 mM DTT and 0.01% BSA with or without the desired concentration of the compound. The reaction was incubated at 22° C. for 1 hour. The pre-incubation step was terminated by addition of the detection mixture containing 300 nM Fluorescein-D22 co-activator peptide and 10 nM lantha screen Tb-anti GST antibody into the reaction mixture. After shaking for 5 minutes the reaction was further incubated for 1 hour at room temperature and read at 4° C. on an Infinite F500 reader as per the kit instructions (Invitrogen). The inhibition of test compound was calculated based on the TR-FRET ratio of 520/495. The activity was calculated as a percent of control reaction. IC50 values were calculated from dose response curve by nonlinear regression analysis using GraphPad Prism software.
Percentage inhibition at concentrations of 1.0 μM and 10.0 μM are given in the table along with IC50 (nM) details for selected examples.

A value given as a limit tells only on which side of the number the result lay.

One may read the IC50 as the concentration needed to halve the response being measured. The term inhibition denotes the percentage by which the read-out fell short of the control. Turning to `CCn1c(C2(Oc3ccc(NC(=O)Cc4ccc(S(=O)(=O)CC)cc4)cc3)CC2)nc2ccc(Cl)cc21` [Example 23, N-(4-{[1-(6-Chloro-1-ethyl-1H-benzimidazol-2-yl)cyclopropyl]oxy}phenyl)-2-[4-(ethylsulfonyl)phenyl]acetamide], the IC50 was > 100 nM, the inhibition at 1 µM was determined as 69.6% and the inhibition at 10 µM was determined as 86%.
With `CCn1c(C2(Oc3ccc(NC(=O)Cc4ccc(S(=O)(=O)CC)cc4)cc3)CC2)nc2cc(Cl)ccc21` [Example 24, N-{4-[1-(5-Chloro-1-ethyl-1H-benzoimidazol-2-yl)-cyclopropoxy]-phenyl}-2-(4-ethanesulfonyl-phenyl)-acetamide], the IC50 is > 100 nM, the inhibition at 1 µM was 65.7% and the inhibition at 10 µM was 85.6%.
For the molecule `CCS(=O)(=O)c1ccc(CC(=O)Nc2ccc(OC3(c4nc5cc(Cl)ccc5n4C)CCC3)cc2)cc1` [Example 25, N-{4-[1-(5-Chloro-1-methyl-1H-benzoimidazol-2-yl)-cyclobutoxy]-phenyl}-2-(4-ethanesulfonyl-phenyl)-acetamide], the IC50 lay within 50 to 100 nM, the inhibition at 1 µM was 85.3% and the inhibition at 10 µM was 94.2%.
Turning to `CCn1c(C2(Oc3ccc(NC(=O)Cc4ccc(S(=O)(=O)CC)cc4)cc3)CCC2)nc2cc(F)ccc21` [Example 26, 2-(4-Ethanesulfonyl-phenyl)-N-{4-[1-(1-ethyl-5-fluoro-1H-benzoimidazol-2-yl)-cyclobutoxy]-phenyl}-acetamide], the IC50 was 50 to 100 nM, the inhibition at 1 µM came out at 80.5% and the inhibition at 10 µM stood at 90.9%.
In the same order, the values of `CCS(=O)(=O)c1ccc(CC(=O)Nc2ccc(OC3(c4nnc5ccc(Cl)cn45)CCC3)cc2)cc1` [Example 27, N-{4-[1-(6-Chloro-[1,2,4]triazolo[4,3-a]pyridin-3-yl)-cyclobutoxy]-phenyl}-2-(4-ethanesulfonyl-phenyl)-acetamide] are 50 to 100 nM, 69.7% and 90%.
In the case of `CCS(=O)(=O)c1ccc(CC(=O)Nc2ccc(OC(C)(C)c3noc(-c4ccc(Cl)cc4)n3)cc2)cc1` [Example 28, N-(4-{1-[5-(4-Chloro-phenyl)-[1,2,4]oxadiazol-3-yl]-1-methyl-ethoxy}-phenyl)-2-(4-ethanesulfonyl-phenyl)-acetamide], the inhibition at 1 µM turned out to be 61.1% and the inhibition at 10 µM stood at 84.4%.
On to `CCS(=O)(=O)c1ccc(CC(=O)Nc2ccc(OC(C)(C)Cn3ccc4cc(Cl)ccc43)cc2)cc1` [Example 29, N-(4-{[1-(5-Chloro-1H-indol-1-yl)-2-methylpropan-2-yl]oxy}phenyl)-2-[4-(ethylsulfonyl)phenyl]acetamide], for which the concentration for half-maximal inhibition (IC50) was < 50 nM, the inhibition at 1 µM stood at 80.3% and the inhibition at 10 µM was 82.8%.
As to `CCS(=O)(=O)c1ccc(CC(=O)Nc2ccc(OC(C)(C)Cn3c(C)cc4cc(F)ccc43)cc2)cc1` [Example 30, 2-[4-(Ethylsulfonyl)phenyl]-N-(4-{[1-(5-fluoro-2-methyl-1H-indol-1-yl)-2-methylpropan-2-yl]oxy}phenyl)acetamide], the inhibition at 1 µM was 67.7% and the inhibition at 10 µM came to 70.7%.
In the case of `CCS(=O)(=O)c1ccc(CC(=O)Nc2ccc(OC3(c4ccc(Cl)cc4)CCC3)cc2)cc1` [Example 31, N-{4-[1-(4-Chloro-phenyl)-cyclobutoxy]-phenyl}-2-(4-ethanesulfonyl-phenyl)-acetamide], the IC50 was 50 to 100 nM, the inhibition at 1 µM stood at 81.9% and the inhibition at 10 µM turned out to be 89.1%.
On to `CCS(=O)(=O)c1ccc(CC(=O)Nc2ccc(OC3(c4ccc(Cl)c(F)c4)CCC3)cc2)cc1` [Example 32, N-(4-{[1-(4-Chloro-3-fluorophenyl)cyclobutyl]oxy}phenyl)-2-[4-(ethylsulfonyl)phenyl]acetamide], for which the IC50 was < 50 nM, the inhibition at 1 µM was 83.7% and the inhibition at 10 µM came out at 88.5%.
For the molecule `CCS(=O)(=O)c1ccc(CC(=O)Nc2ccc(OC3(c4ccc(Cl)cc4F)CCC3)cc2)cc1` [Example 33, N-(4-{[1-(4-Chloro-2-fluorophenyl)cyclobutyl]oxy}phenyl)-2-[4-(ethylsulfonyl)phenyl]acetamide], the inhibition at 1 µM came out at 76.7% and the inhibition at 10 µM came out at 81.8%.
In the case of `CCS(=O)(=O)c1ccc(CC(=O)Nc2ccc(OC3(c4ccc(F)c(F)c4)CCC3)cc2)cc1` [Example 34, N-{4-[1-(3,4-Difluoro-phenyl)-cyclobutoxy]-phenyl}-2-(4-ethanesulfonyl-phenyl)-acetamide], the IC50 was < 50 nM, the inhibition at 1 µM came to 86.6% and the inhibition at 10 µM amounted to 89.7%.
Consider `CCS(=O)(=O)c1ccc(CC(=O)Nc2ccc(OC3(c4ccc(F)c(F)c4)CCOCC3)cc2)cc1` [Example 35, N-{4-[4-(3,4-Difluoro-phenyl)-tetrahydro-pyran-4-yloxy]-phenyl}-2-(4-ethanesulfonyl-phenyl)-acetamide], for which the IC50 lay within 50 to 100 nM, the inhibition at 1 µM stood at 79.5% and the inhibition at 10 µM is 86.7%.
On to `CCS(=O)(=O)c1ccc(CC(=O)Nc2ccc(OC3(c4ccc(Cl)cc4F)CCOCC3)cc2)cc1` [Example 36, N-(4-{[4-(4-Chloro-2-fluorophenyl)tetrahydro-2H-pyran-4-yl]oxy}phenyl)-2-[4-(ethylsulfonyl)phenyl]acetamide], for which the inhibition at 1 µM turned out to be 69.9% and the inhibition at 10 µM amounted to 74.7%.
In the case of `CCS(=O)(=O)c1ccc(CC(=O)Nc2ccc(OC3(c4ccc(Cl)cc4)CCOCC3)cc2)cc1` [Example 37, N-{4-[4-(4-Chlorophenyl)-tetrahydro-pyran-4-yloxy]-phenyl}-2-(4-ethanesulfonyl-phenyl)-acetamide], the IC50 is > 100 nM, the inhibition at 1 µM is 80.8% and the inhibition at 10 µM came out at 83.2%.
On the same counts, the results for `CCS(=O)(=O)c1ccc(CC(=O)Nc2ccc(OC3(c4ccc(Cl)c(F)c4)CCOCC3)cc2)cc1` [Example 38, N-{4-[4-(4-Chloro-3-fluoro-phenyl)-tetrahydro-pyran-4-yloxy]-phenyl}-2-(4-ethanesulfonyl-phenyl)-acetamide] are < 50 nM, 85.8% and 87.8%.
Consider `CCS(=O)(=O)c1ccc(CC(=O)Nc2ccc(OC3(c4ccc(Cl)c(Cl)c4)CCOCC3)cc2)cc1` [Example 39, N-{4-[4-(3,4-Dichloro-phenyl)-tetrahydro-pyran-4-yloxy]-phenyl}-2-(4-ethanesulfonyl-phenyl)-acetamide], for which the IC50 was 50 to 100 nM, the inhibition at 1 µM was determined as 87.7% and the inhibition at 10 µM is 94.8%.
In the same order, the values of `CCS(=O)(=O)c1ccc(CC(=O)Nc2ccc(OC3(c4ccc(Cl)cc4Cl)CCOCC3)cc2)cc1` [Example 40, N-{4-[4-(2,4-Dichloro-phenyl)-tetrahydro-pyran-4-yloxy]-phenyl}-2-(4-ethanesulfonyl-phenyl)-acetamide] are < 50 nM, 77.4% and 81.9%.
`CCS(=O)(=O)c1ccc(CC(=O)Nc2ccc(OC3(c4ccc(C(F)(F)F)c(F)c4)CCOCC3)cc2)cc1` [Example 41, 2-(4-Ethanesulfonyl-phenyl)-N-{4-[4-(3-fluoro-4-trifluoromethyl-phenyl)-tetrahydro-pyran-4-yloxy]-phenyl}-acetamide]: the IC50 is > 100 nM, the inhibition at 1 µM came to 78% and the inhibition at 10 µM worked out at 87.2%.
With `CCS(=O)(=O)c1ccc(CC(=O)Nc2ccc(OC3(c4ccc(F)c(C(F)(F)F)c4)CCOCC3)cc2)cc1` [Example 42, 2-(4-Ethanesulfonyl-phenyl)-N-{4-[4-(4-fluoro-3-trifluoromethyl-phenyl)-tetrahydro-pyran-4-yloxy]-phenyl}-acetamide], the inhibition at 1 µM came out at 65.9% and the inhibition at 10 µM was found to be 86%.
Regarding `CCS(=O)(=O)c1ccc(CC(=O)Nc2ccc(OC3(c4ccc(Cl)c(F)c4)CCNCC3)cc2)cc1` [Example 43, N-(4-{[4-(4-Chloro-3-fluorophenyl)piperidin-4-yl]oxy}phenyl)-2-[4-(ethylsulfonyl)phenyl]acetamide], the inhibition at 1 µM stood at 27.3% and the inhibition at 10 µM was 55%.
